Patent US20250145564A1, “SULFONYLUREA COMPOUND, PREPARATION METHOD THEREFOR, AND APPLICATION THEREOF” (SHANGHAI INSTITUTE OF MATERIA MEDICA, CHINESE ACADEMY OF …, priority 2021, published 2025)

Key:
[1] = tested on: mice with chronic heart failure (TAC); test: Anti-heart failure effect in vivo, TAC mouse model; settings: for impaired cardiac function (EF value, FS value, dp/dt reduced by TAC): daily gavage 0.2 mg/kg and 0.4 mg/kg; for cross-sectional area of cardiomyocytes, HE staining (myocardial hypertrophy) / positive area of Sirius red staining (myocardial fibrosis): daily gavage eight weeks, I-1, I-23 0.2 and 0.4 mg/kg, glimepiride 1.2 mg/kg
Excerpt: (§1) 12-week-old male C57BL/6 mice, which were purchased from Gempharmatech Co., Ltd, were raised in the SPF animal house of Tongji Medical College, Huazhong University of Science and Technology. After one week of acclimatization in the animal house, the mice were subjected to thoracic aortic constriction as the TAC group. Another group of mice were subjected to thoracotomy without ligation of thoracic aorta as Sham group. Meanwhile, AUDA was used as the positive control.
(§2) Cardiac ultrasound detection was performed on a Visual Sonics Vevo 2100 small animal ultrasound imager. The major measurement indicators include heart rate (HR), left ventricular ejection fraction (LVEF), left ventricular fractional shortening (LVFS), left ventricular internal dimension-diastole (LVIDd) and left ventricular internal dimension-systole (LVIDs), and left ventricular posterior wall thickness (LVPWd and LVPWs).
(§3) The detection was performed on a Millar pressure-volume system from Millar Instr Ment PowerLab. After the animals were anesthetized to an appropriate extent, a midline incision was made in the neck, the right common carotid artery was separated, ligated at the distal end and clipped at the proximal end. A V-shaped incision was made on the artery with microscissors, and a microcatheter was inserted to the left ventricle. Signals were recorded through a conduction system to obtain hemodynamic data such as heart rate (HR), left ventricular end diastolic pressure (PED), left ventricular end systolic pressure (PES), maximum rate of decrease in left ventricular pressure (−dp/dtmin), and maximum rate of increase in left ventricular pressure (+dP/dtmax).
(§4) The myocardial tissue was placed in an embedding frame, soaked and fixed in neutral formaldehyde solution, dehydrated, and embedded in paraffin. The paraffin block was then sliced into sections with a thickness of 4 μm on a microtome. The general appearance of the myocardium was observed through HE staining, and the myocardial fibrosis was observed through Sirius red staining.
(§5) Total RNA was extracted using Invitrogen's Trizol reagent, then cDNA was obtained using TAKARA's reverse transcription kit, and finally the mRNA content of related genes was amplified with specific primers.
(§6) Cardiac ultrasound examination was performed two weeks after TAC surgery. 24 TAC mice with no significant difference in cardiac function were selected and randomly divided into a model group (TAC) and a treatment group (TAC+compound). The model group received no other treatment, while the treatment group received daily gavage (0.2 mg/kg and 0.4 mg/kg for I-1 and I-23 of the present application, and 1.2 mg/kg for glimepiride). Eight weeks later, i.e., at the chronic heart failure phase, the animals were sacrificed, and tissue specimens were collected to perform the above detections.

[2] = biological target: T1, sEH in cardiomyocytes (AC16) (Homo sapiens, UniProt P34913); test: Inhibition assay on sEH in cardiomyocytes (14,15-EET/DHET ELISA); format: cell-based; settings: AC16, 0.1, 1 and 10 μM, 24 hours; for content of DHET in cardiomyocytes / content of EETs in cardiomyocytes: compared with the control
T1 construct: endogenous in cells; host or cells: AC16 human cardiomyocyte cell line (ATCC)
T1 sequence (P34913 1-555): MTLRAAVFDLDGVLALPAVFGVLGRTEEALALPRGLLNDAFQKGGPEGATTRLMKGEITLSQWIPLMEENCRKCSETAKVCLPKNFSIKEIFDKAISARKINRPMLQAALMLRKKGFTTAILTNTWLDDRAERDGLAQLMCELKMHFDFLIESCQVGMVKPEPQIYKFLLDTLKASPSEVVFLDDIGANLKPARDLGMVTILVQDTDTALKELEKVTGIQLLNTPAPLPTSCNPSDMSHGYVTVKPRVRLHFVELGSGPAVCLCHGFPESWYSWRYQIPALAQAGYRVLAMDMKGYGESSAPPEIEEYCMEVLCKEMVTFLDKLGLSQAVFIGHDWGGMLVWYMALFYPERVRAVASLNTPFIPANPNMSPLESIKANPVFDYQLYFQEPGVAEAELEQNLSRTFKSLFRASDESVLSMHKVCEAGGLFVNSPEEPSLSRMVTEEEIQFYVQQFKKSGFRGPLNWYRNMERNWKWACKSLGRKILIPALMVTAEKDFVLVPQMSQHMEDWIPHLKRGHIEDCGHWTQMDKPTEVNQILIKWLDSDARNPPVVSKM
Protocol: (§7) Biomaterial sources: Human cardiomyocyte cell line AC16 was purchased from ATCC, USA. Phenylephrine (PE) was purchased from Sigma Company. AUDA was purchased from Cayman Company.
The compounds were dissolved in DMSO. The working concentrations were 0.1, 1 and 10 μM for the compounds of the present invention, 0.1, 1 and 10 μM for glimepiride, and 1 μM for AUDA. The incubation time was 24 hours.
(§8) The ELISA detection kit (BIOTARGET 14,15-EET/DHET ELISA KIT) from Detroit R&D company was used, and the experiment was conducted according to the instructions of the kit.
(§9) After 24 hours of incubation, cardiomyocytes were collected to perform the above detection.

[3] = tested on: PE induced cardiomyocyte remodeling (AC16); test: Inhibitory effect on PE induced myocardial injury (BNP mRNA); format: cell-based, human; settings: PE 100 μM, 24 hours; compounds 0.1, 0.5, 1 μM; glimepiride 10 μM
Protocol: as §7
PE was dissolved in disinfected deionized water with a working concentration of 100 μM. The compounds were dissolved in DMSO, and the working concentrations were 0.1, 0.5, 1 μM for the compounds of the present invention, 10 μM for glimepiride, and 1 μM for AUDA. The incubation time was 24 hours.
as §5, §9

sEH (human recombinant) = biological target: T2, sEH (human recombinant) (Homo sapiens, UniProt P34913); test: sEH inhibition assay (fluorescence);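 further: enzyme preincubated with compound 30 min at 25 °C, then substrate added and fluorescence read after 15 min at 25 °C, 320 nm and 460 nm, versus DMSO negative control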
T2 sequence (P34913 1-555): T1 sequence (P34913 1-555)
Protocol: sEH Assay Buffer was purchased from Cayman Chemical; sEH (human recombinant) was purchased from Cayman Chemical; sEH substrate was purchased from Cayman Chemical. The working solution of 20% DMSO for the compounds was prepared by mixing dimethyl sulfoxide with water in a volume ratio of 1:4, and shaking to mix well.
sEH Assay Buffer (10×), SEH (human recombinant) and sEH substrate were thawed on ice.
The sEH Assay Buffer (lux) was prepared into a 1×sEH Assay Buffer with deionized water. 12 μL of sEH was added with 588 µL of 1× Assay Buffer to be diluted 50 times to obtain a sEH working solution. 180 µL of 1× Assay Buffer was added into the corresponding wells; the sEH working solution was added to the corresponding wells at 5 μL/well; the working solution of 20% DMSO for the compounds was added into the corresponding wells at 5 μL/well, and blank wells and negative control wells added with an equal amount of DMSO were set. After centrifuged at 1000 rpm for 1 minute, the wells were incubated at 25° C. for 30 minutes. After incubation, the substrate was added into the 96-wells plate at 5 μL/well and the plate was centrifuged at 1000 rpm for 1 minute. After incubation at 25° C. for 15 minutes, fluorescence values were read at emission wavelengths of 320 nm and 460 nm.

[4] = tested on: mice with chronic heart failure (TAC); test: TAC mouse model, comparison of I-23 and Empagliflozin; format: in vivo
Excerpt: as §1, §2, §3, §4, §5
as §6, with “(0.44” for “(0.2 mg/kg and 0.4”, “for” for “for I-1 and”, “or 10” for “of the present application, and 1.2”, “Empagliflozin).” for “glimepiride).”
This experiment was to compare the ameliorative effects of I-23 and Empagliflozin on chronic heart failure.

[5] = biological target: T3, sEH in the hearts of mice with chronic heart failure (Mus musculus, UniProt P34914); test: sEH enzymic activity in hearts of TAC mice; format: in vivo; settings: daily gavage 1.2 mg/kg, eight weeks
T3 construct: from tissue; host or cells: heart tissue of male C57BL/6 mice after TAC surgery
T3 sequence (P34914 1-554): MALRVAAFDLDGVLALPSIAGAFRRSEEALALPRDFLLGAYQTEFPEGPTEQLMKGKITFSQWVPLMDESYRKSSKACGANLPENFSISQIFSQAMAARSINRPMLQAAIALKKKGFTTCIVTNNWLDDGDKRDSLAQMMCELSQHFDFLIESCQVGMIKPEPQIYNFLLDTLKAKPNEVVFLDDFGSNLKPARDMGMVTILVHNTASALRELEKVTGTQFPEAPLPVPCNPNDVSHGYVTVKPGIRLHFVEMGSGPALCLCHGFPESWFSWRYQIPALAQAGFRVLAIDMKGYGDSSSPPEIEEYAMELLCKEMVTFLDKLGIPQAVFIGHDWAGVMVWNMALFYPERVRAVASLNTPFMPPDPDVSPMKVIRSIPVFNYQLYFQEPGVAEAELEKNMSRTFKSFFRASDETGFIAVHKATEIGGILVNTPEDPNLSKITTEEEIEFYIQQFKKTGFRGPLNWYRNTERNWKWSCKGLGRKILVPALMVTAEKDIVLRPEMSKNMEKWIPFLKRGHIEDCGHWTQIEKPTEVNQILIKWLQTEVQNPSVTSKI
Protocol: as §8, §1, §6

[6] = I-23 0.44 mg/kg vs Empagliflozin 10 mg/kg
[7] = mice, daily gavage eight weeks, I-23 0.44 mg/kg, Empagliflozin 10 mg/kg

Row | inhibitory effect on enzymic activity of sEH in cardiomyocytes ([2]; effect increases as the concentration increases) | increase of sEH enzymic activity in the hearts after TAC [5] | SMILES | impaired cardiac function (EF value, FS value, dp/dt reduced by TAC) ([1]; eight weeks) | expression of BNP in mouse cardiomyocytes after TAC ([1]; daily gavage 0.2 and 0.4 mg/kg, eight weeks) | cross-sectional area of cardiomyocytes, HE staining (myocardial hypertrophy) [1] | positive area of Sirius red staining (myocardial fibrosis) [1] | content of DHET in cardiomyocytes [2] | content of EETs in cardiomyocytes [2] | BNP expression induced by PE (cardiomyocyte remodeling) [3] | IC50 (sEH (human recombinant)) | effect on cardiac hypertrophy relative to Empagliflozin [4, 6] | effect on impaired cardiac function relative to Empagliflozin [4, 6] | cardiac hypertrophy (heart photographs, heart weight/tibia length HW/TL) [4, 7] | expression of BNP in mouse cardiomyocytes after TAC [4, 7] | impaired cardiac function (EF value, FS value, LVIDs, dp/dt) [4, 7] | positive area of Sirius red staining (myocardial fibrosis) [4, 7] | impaired cardiac function (EF value and dp/dt reduced by TAC) ([1]; daily gavage 1.2 mg/kg, eight weeks)
1 |  |  | CCC1=C(C)CN(C(=O)NCCc2ccc(S(=O)(=O)N(C)C(=O)N[C@H]3CC[C@H](C)CC3)cc2)C1=O [Compound I-1] | can inhibit this effect | can inhibit this effect | can inhibit this effect | can inhibit this effect | reducing | significantly increase | can inhibit this effect | 1 to 10 µM |  |  |  |  |  |  | 
2 |  |  | Cc1ccc(S(=O)(=O)N(C)C(=O)NN2CC3CCCC3C2)cc1 (stereo not shown) [Compound I-4] |  |  |  |  | reducing | significantly increase | can inhibit this effect | 1 to 10 µM |  |  |  |  |  |  | 
3 |  |  | CCC1=C(C)CN(C(=O)NCCc2ccc(S(=O)(=O)NC(=O)N[C@H]3CC[C@H](COC(C)=O)CC3)cc2)C1=O [Compound I-23] | can inhibit this effect |  | can inhibit this effect | can inhibit this effect | reducing | significantly increase | can inhibit this effect | 1 to 10 µM | comparable to that of Empagliflozin | comparable to that of Empagliflozin | reversal effect | can inhibit this effect | can inhibit this effect | can inhibit this effect | 
4 | significant inhibitory effect | could inhibit this effect | CCC1=C(C)CN(C(=O)NCCc2ccc(S(=O)(=O)NC(=O)N[C@H]3CC[C@H](C)CC3)cc2)C1=O [glimepiride, reference compound] |  |  | can inhibit this effect | can inhibit this effect |  |  | can inhibit this effect |  |  |  |  |  |  |  | can inhibit this effect
